Results on 18 molecules are retold here after patent publication US11365188B2, “JAK inhibitors” (priority 2018, dated 2022).

What all share (assay type): biochemical
One assay concerns the target T1, JAK3 (Homo sapiens, UniProt P52333).
T1 sequence (P52333 1-1124): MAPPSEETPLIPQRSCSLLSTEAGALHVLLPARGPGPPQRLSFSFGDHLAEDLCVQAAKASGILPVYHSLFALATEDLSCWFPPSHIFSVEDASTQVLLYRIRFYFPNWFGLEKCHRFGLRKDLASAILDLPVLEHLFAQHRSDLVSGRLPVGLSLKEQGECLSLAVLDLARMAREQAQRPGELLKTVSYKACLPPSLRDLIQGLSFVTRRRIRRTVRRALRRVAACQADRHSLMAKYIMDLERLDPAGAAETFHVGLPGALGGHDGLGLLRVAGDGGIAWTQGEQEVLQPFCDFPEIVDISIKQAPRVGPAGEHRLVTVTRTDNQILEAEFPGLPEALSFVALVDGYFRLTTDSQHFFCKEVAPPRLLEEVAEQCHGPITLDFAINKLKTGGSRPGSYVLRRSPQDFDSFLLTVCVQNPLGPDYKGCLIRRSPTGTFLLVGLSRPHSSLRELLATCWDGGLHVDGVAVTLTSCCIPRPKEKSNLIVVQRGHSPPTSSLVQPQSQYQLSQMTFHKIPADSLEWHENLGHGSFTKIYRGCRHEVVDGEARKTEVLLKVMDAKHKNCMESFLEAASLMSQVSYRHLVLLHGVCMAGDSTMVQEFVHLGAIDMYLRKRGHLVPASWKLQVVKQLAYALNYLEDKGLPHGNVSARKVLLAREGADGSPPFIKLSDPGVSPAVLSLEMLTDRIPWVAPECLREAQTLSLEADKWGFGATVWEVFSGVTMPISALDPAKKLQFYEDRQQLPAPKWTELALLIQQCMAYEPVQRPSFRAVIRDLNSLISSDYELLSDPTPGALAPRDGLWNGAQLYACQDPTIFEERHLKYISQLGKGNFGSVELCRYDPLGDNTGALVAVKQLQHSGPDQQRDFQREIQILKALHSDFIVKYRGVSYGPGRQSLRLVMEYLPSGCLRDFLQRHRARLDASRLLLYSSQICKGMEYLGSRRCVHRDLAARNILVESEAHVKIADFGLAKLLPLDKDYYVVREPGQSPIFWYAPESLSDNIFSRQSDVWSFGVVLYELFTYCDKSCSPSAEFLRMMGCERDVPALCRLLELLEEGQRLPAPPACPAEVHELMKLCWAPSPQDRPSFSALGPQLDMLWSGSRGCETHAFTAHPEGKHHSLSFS
As to the kind of experiment: JAK3 Assay (Caliper EZ Reader, fluoresceinated peptide). The note with it: ATP 3.5 μM; JAK3 0.5 nM; 30 minutes at room temperature; read-out: JAK3 inhibition. On the procedure: JAK3 Assay 384-well plates in the left foot butoxy measured progress. The final assay volume was 25 μL, 250 nL 100× compounds, 10 μL enzyme mix and 15 μL substrate mix (fluoresceinated peptide and ATP) in assay buffer (50 mM HEPES (pH 7.5), 10 mM MgCl2, 0.01% TritonX-100, 0.01% Brij35, 0.5 mM EGTA and 2 mM DTT) prepared as test compound. By mixing the JAK3 with substrates and test compounds to start the reaction. The reaction mixture was incubated for 30 minutes at room temperature, then added 30 μL stop buffer for each sample to terminate the reaction with 50 mM EDTA. After termination of the kinase reaction, the proportion of phosphorylated product was determined as a fraction of total peptide substrate using Caliper EZ Reader II. Inhibition data were calculated by comparison with 100% of the reaction mixture without enzyme inhibition and vehicle-only reaction mixture billion % inhibition compared. The final concentration of reagents in the assays is: ATP, 3.5 μM; JAK3 fluorescent peptide (5-FAM-EEPLYWSFPAKKK-CONH2), 3 μM; JAK3, 0.5 nM; and DMSO, 1%. Dose response curve were generated to determine the concentration required for IC50 of JAK3 activity.

Another assay has as its target JAK2 (Homo sapiens, UniProt O60674). As to the kind of experiment: JAK2 Assay (Caliper EZ Reader, fluoresceinated peptide). The following applies: ATP 11.4 μM; JAK2 0.25 nM; 15 minutes at room temperature; read-out: JAK2 inhibition. The method, then:
JAK2 Assay 384-well plates in the left foot butoxy measured progress. The final assay volume was 25 μL, 250 nL 100× compounds, 10 μL enzyme mix and 15 μL substrate mix (fluoresceinated peptide and ATP) in assay buffer (50 mM HEPES (pH 7.5), 10 mM MgCl2, 0.01% TritonX-100, 0.01% Brij35, 0.5 mM EGTA and 2 mM DTT) prepared as test compound By mixing the JAK2 with substrates and test compounds to start the reaction. The reaction mixture was incubated for 15 minutes at room temperature, then added 30 μL stop buffer for each sample to terminate the reaction with 50 mM EDTA. After termination of the kinase reaction, the proportion of phosphorylated product was determined as a fraction of total peptide substrate using Caliper EZ Reader 1 Inhibition data were calculated by comparison with 100% of the reaction mixture without enzyme inhibition and vehicle-only reaction mixture billion % inhibition compared. The final concentration of reagents in the assays is: ATP, 11.4 μM; JAK2 fluorescent peptide (5-FAM-EEPLYWSFPAKKK-CONH2), 3 μM; JAK2, 0.25 nM; and DMSO, 1%. Dose response curve were generated to determine the concentration required for IC50 of JAK2 activity.

The next assay deals with JAK1 (Homo sapiens, UniProt P23458). As to the kind of experiment: JAK Kinase Assay (JAK1, Caliper EZ Reader, fluoresceinated peptide). The following applies: ATP 76.5 μM; JAK1 10 nM; 120 minutes at room temperature; read-out: JAK1 inhibition.
JAK1, sequence (P23458 whole entry, species assumed): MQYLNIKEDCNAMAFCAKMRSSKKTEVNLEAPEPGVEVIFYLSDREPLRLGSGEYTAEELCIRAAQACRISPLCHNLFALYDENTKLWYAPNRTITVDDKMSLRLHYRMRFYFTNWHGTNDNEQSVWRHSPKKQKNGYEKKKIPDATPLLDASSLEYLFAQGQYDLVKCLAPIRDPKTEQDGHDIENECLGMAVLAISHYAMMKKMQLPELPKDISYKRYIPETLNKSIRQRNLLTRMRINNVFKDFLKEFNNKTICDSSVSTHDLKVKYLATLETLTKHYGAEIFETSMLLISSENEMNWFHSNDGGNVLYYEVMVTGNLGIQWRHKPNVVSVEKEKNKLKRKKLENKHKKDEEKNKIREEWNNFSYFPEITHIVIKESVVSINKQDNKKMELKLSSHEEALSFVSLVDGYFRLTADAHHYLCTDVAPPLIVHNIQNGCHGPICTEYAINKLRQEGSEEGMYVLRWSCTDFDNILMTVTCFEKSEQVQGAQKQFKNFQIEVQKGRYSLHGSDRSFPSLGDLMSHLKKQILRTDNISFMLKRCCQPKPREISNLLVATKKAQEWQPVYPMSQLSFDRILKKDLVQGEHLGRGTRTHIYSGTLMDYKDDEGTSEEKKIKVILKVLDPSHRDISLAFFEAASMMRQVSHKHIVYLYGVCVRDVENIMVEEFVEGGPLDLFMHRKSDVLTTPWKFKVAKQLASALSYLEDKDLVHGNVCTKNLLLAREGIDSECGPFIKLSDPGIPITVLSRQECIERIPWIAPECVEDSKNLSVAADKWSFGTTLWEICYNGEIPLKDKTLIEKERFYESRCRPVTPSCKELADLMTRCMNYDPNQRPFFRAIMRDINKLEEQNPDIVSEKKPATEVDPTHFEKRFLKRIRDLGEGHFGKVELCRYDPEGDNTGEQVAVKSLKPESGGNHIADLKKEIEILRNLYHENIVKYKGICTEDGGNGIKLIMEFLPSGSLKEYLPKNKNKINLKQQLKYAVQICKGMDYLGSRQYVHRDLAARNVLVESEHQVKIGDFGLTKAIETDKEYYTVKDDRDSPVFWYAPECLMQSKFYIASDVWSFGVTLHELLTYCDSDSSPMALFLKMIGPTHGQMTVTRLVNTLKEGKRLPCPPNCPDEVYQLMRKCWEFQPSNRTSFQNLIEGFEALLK

JAK2, sequence (O60674 whole entry, species assumed): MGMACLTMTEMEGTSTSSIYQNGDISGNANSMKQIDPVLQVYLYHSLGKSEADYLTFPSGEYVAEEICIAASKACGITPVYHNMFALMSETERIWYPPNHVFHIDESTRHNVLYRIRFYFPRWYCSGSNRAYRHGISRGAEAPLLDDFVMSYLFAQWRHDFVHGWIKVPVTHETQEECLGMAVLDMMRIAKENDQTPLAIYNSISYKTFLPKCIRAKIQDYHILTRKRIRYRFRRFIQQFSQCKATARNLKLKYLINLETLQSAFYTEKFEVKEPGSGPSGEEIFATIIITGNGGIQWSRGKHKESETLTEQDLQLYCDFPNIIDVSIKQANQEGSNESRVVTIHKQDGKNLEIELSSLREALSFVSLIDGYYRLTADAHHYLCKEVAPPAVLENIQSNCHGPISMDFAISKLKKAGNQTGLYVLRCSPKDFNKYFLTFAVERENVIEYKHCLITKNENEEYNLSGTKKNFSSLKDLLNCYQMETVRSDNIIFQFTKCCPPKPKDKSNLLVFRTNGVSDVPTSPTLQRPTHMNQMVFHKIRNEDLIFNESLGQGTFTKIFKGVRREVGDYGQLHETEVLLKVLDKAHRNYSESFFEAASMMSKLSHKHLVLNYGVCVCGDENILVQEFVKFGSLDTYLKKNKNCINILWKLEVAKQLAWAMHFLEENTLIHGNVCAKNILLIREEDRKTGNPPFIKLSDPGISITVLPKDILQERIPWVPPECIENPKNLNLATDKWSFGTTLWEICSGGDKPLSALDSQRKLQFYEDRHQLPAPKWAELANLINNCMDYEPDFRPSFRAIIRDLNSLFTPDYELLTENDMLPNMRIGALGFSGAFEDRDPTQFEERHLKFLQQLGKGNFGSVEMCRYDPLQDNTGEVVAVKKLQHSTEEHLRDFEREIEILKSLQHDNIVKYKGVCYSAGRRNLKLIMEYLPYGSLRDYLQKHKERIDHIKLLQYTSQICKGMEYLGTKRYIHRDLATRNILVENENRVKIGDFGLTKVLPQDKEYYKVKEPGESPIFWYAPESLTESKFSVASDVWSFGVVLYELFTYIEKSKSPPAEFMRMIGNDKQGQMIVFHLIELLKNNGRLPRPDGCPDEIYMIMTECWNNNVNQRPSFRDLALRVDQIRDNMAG

With `CN(c1ncnc2[nH]ccc12)C1CC2(C1)CN(C(=O)c1cc[nH]n1)C2` [Compound 45, (6-(methyl(7H-pyrrolo[2,3-d]pyrimidin-4-yl)amino)-2-azaspiro[3.3]heptan-2-yl)(1H-pyrazol-3-yl)methanone], the IC50 was no less than 10000 nM on JAK3, 1000 to 10000 nM on JAK2 and 1000 to 10000 nM on JAK1.

In the case of `C#Cc1ccc(C(=O)N2CC3(CC(N(C)c4ncnc5[nH]ccc45)C3)C2)cc1Cl` [Compound 46, (3-chloro-4-ethynylphenyl)(6-(methyl(7H-pyrrolo[2,3-d]pyrimidin-4-yl)amino)-2-azaspiro[3.3]heptan-2-yl)methanone], the IC50 is no less than 10000 nM on JAK3, 100 to 1000 nM at JAK2 and no more than 10 nM at JAK1.

As for `C#Cc1ccc(C(=O)N2CC3(CC(N(C)c4ncnc5[nH]ccc45)C3)C2)cc1F` [Compound 47, (4-ethynyl-3-fluorophenyl)(6-(methyl(7H-pyrrolo[2,3-d]pyrimidin-4-yl)amino)-2-azaspiro[3.3]heptan-2-yl)methanone], the IC50 is 1000 to 10000 nM on JAK3, 100 to 1000 nM at JAK2 and no more than 10 nM at JAK1.

Turning to `C#Cc1ccc(C(=O)N2CC3(CC(N(C)c4ncnc5[nH]ccc45)C3)C2)nc1` [Compound 48, (5-ethynylpyridin-2-yl)(6-(methyl(7H-pyrrolo[2,3-d]pyrimidin-4-yl)amino)-2-azaspiro[3.3]heptan-2-yl)methanon], the IC50 at JAK3 is 1000 to 10000 nM; at JAK2 it was 1000 to 10000 nM; on JAK1 it was 10 to 100 nM.

With `CN(c1ncnc2[nH]ccc12)C1CC2(C1)CN(C(=O)c1ccc3c(c1)ncn3C)C2` [Compound 49, (6-(methyl(7H-pyrrolo[2,3-d]pyrimidin-4-yl)amino)-2-azaspiro[3.3]heptan-2-yl)(1-methyl-1H-benzo[d]imidazol-5-yl)methanone], the IC50 on JAK3 is no less than 10000 nM; at JAK2, 1000 to 10000 nM; on JAK1, 1000 to 10000 nM.

Consider `CN(c1ncnc2[nH]ccc12)C1CC2(C1)CN(C(=O)c1ccn(C)n1)C2` [Compound 50, (6-(methyl(7H-pyrrolo[2,3-d]pyrimidin-4-yl)amino)-2-azaspiro[3.3]heptan-2-yl)(1-methyl-1H-pyrazol-3-yl)methanone], for which the IC50 on JAK3 was no less than 10000 nM; on JAK2 it was no less than 10000 nM; at JAK1, 100 to 1000 nM.

As to `CN(c1ncnc2[nH]ccc12)C1CC2(C1)CN(C(=O)c1ccc(-c3ccn(C)n3)cc1)C2` [Compound 68], the IC50 at JAK3 fell in the range of 1000 to 10000 nM; at JAK2, 1000 to 10000 nM; at JAK1, 100 to 1000 nM.

Consider `CN(c1ncnc2[nH]ccc12)C1CC2(C1)CN(C(=O)c1cnn(C3CC3)c1)C2` [Compound 69, (1-Cyclopropyl-1H-pyrazol-4-yl)-{6-[methyl-(7H-pyrrolo[2,3-d]pyrimidin-4-yl)-amino]-2-aza-spiro[3.3]hept-2-yl}-methanone], for which the IC50 on JAK3 was no less than 10000 nM; on JAK2 it was 1000 to 10000 nM; on JAK1, 100 to 1000 nM.

As for `COC(=O)N1CCC2(CCC(N(C)c3ncnc4[nH]ccc34)CC2)CC1` [Compound 73, Methyl 9-(methyl(7H-pyrrolo[2,3-d]pyrimidin-4-yl)amino)-3-azaspiro[5.5]undecane-3-carboxylate], the IC50 was 100 to 1000 nM on JAK3, 100 to 1000 nM on JAK2 and no more than 10 nM at JAK1.

As to `CC(=O)N1CCC2(CCC(N(C)c3ncnc4[nH]ccc34)CC2)CC1` [Compound 75, 1-{9-[Methyl-(7H-pyrrolo[2,3-d]pyrimidin-4-yl)-amino]-3-aza-spiro[5.5]undec-3-yl}-ethanone], the IC50 is 100 to 1000 nM on JAK3, 10 to 100 nM on JAK2 and 10 to 100 nM at JAK1.

As for `CCS(=O)(=O)N1CCC2(CCC(N(C)c3ncnc4[nH]ccc34)CC2)CC1` [Compound 76, (3-Ethanesulfonyl-3-aza-spiro[5.5]undec-9-yl)-methyl-(7H-pyrrolo[2,3-d]pyrimidin-4-yl)-amine], the results for the IC50 on JAK3, on JAK2 and at JAK1 were 1000 to 10000 nM, 100 to 1000 nM and 100 to 1000 nM, respectively.

As to `CN(c1ncnc2[nH]ccc12)C1CCC2(CC1)CCN(C(=O)CO)CC2` [Compound 77, 2-Hydroxy-1-{9-[methyl-(7H-pyrrolo[2,3-d]pyrimidin-4-yl)-amino]-3-aza-spiro[5.5]undec-3-yl}-ethanone], the figures for the IC50 on JAK3, at JAK2 and on JAK1 were 100 to 1000 nM, 10 to 100 nM and 10 to 100 nM, respectively.

Consider `CCC(=O)N1CCC2(CCC(N(C)c3ncnc4[nH]ccc34)CC2)CC1` [Compound 78, 1-{9-[Methyl-(7H-pyrrolo[2,3-d]pyrimidin-4-yl)-amino]-3-aza-spiro[5.5]undec-3-yl}-propan-1-one], for which the IC50 on JAK3 fell in the range of 1000 to 10000 nM; on JAK2 it was 100 to 1000 nM; at JAK1, 100 to 1000 nM.

Take `CN(c1ncnc2[nH]ccc12)C1CCC2(CC1)CCN(CC(F)(F)F)CC2` [Compound 79, Methyl-(7H-pyrrolo[2,3-d]pyrimidin-4-yl)-[3-(2,2,2-trifluoro-ethyl)-3-aza-spiro[5.5]undec-9-yl]-amine]: the IC50 at JAK3, on JAK2 and at JAK1 was 100 to 1000 nM in each case.

As for `CN(c1ncnc2[nH]ccc12)C1CCC2(CC1)CCN(C(=O)c1cccnc1)CC2` [Compound 80, {9-[Methyl-(7H-pyrrolo[2,3-d]pyrimidin-4-yl)-amino]-3-aza-spiro[5.5]undec-3-yl}-pyridin-3-yl-methanone], the IC50 at JAK3, on JAK2 and on JAK1 was 100 to 1000 nM throughout.

As for `CN(c1ncnc2[nH]ccc12)C1CCC2(CC1)CCN(C(=O)CCC#N)CC2` [Compound 81, 4-{9-[Methyl-(7H-pyrrolo[2,3-d]pyrimidin-4-yl)-amino]-3-aza-spiro[5.5]undec-3-yl}-4-oxo-butyronitrile], the IC50 at JAK3, on JAK2 and on JAK1 was 100 to 1000 nM in each case.

Regarding `CN(c1ncnc2[nH]ccc12)C1CCC2(CC1)CCN(C(=O)C1CCC(=O)CC1)CC2` [Compound 82, 4-{9-[Methyl-(7H-pyrrolo[2,3-d]pyrimidin-4-yl)-amino]-3-aza-spiro[5.5]undecane-3-carbonyl}-cyclohexanone], the IC50 on JAK3 lay in the range of 1000 to 10000 nM; on JAK2, 1000 to 10000 nM; at JAK1 it was 100 to 1000 nM.

As to `CN(c1ncnc2[nH]ccc12)C1CCC2(CC1)CCN(C(=O)c1cccc(C(F)(F)F)c1)CC2` [Compound 83, {9-[Methyl-(7H-pyrrolo[2,3-d]pyrimidin-4-yl)-amino]-3-aza-spiro[5.5]undec-3-yl}-(3-trifluoromethyl-phenyl)-methanone], the IC50 at JAK3 was in the range of 1000 to 10000 nM; at JAK2, 100 to 1000 nM; on JAK1, 100 to 1000 nM.
